Data: US20200181153A1, “IMIDAZOPYRIDAZINONE COMPOUNDS AND USES THEREOF” (Aduro Biotech, Inc., priority 2018, published 2020)

Tests used:
Human cGAS = target: T1, Human cGAS (Homo sapiens, UniProt Q8N884); assay: cGAS biochemical activity assay (ATP levels by Kinase-Glo Max luminescence); settings: human cGAS amino acids 155-522, 25 nM, activated by 1 μM double stranded DNA, 37° C. for 1.25 hours
T1 construct: hexahistidine tag (N, cleaved yes); made in house; host or cells: E. coli BL21 DE3 Rosetta 2
Procedure: Human cGAS sequence encoding amino acids 155-522 was cloned into a pET (EMD Millipore) based expression plasmid. The resulting construct contained a tandem N-terminal hexahistidine tag, maltose binding protein fusion followed by a tobacco etch virus protease cleavable linker preceding cGAS amino acids 155-522.
Protein was expressed and purified from E. coli BL21 DE3 Rosetta 2 (EMD Millipore) cells using standard techniques. Cells were grown in 2× yeast extract tryptone medium and expression was initiated via the addition of isopropyl β-D-1-thiogalactopyranoside. Expression proceeded overnight at 18° C. Cells were harvested by centrifugation and subsequently […] via sonication. Insoluble fraction was removed by centrifugation. Maltose binding protein (MBP) fusion proteins were purified on a dextrin sepharose column (GE Healthcare) and the MBP tag was removed using tobacco etch virus protease overnight during dialysis. Protein was further purified on a heparin column (GE Healthcare) and eluted using a NaCl gradient. Column fraction were pooled and further purified on a Superdex 75 gel filtration column (GE Healthcare). Protein was quantified using 280 nm absorbance. Protein was then flash frozen in liquid nitrogen and stored at −80° C., until use.
Potential antagonists were diluted in 100% dimethyl sulfoxide and added to the reaction. Final dimethyl sulfoxide concentration was 5%. The compounds were tested from 250 μM with 5-fold serial dilutions down to 0.000128 μM.
Two complementary DNA oligos (IDT DNA) were annealed by slow cooling from 95° C. The resulting double stranded DNA was used to activate cGAS.
Reactions were performed at 37° C., for 1.25 hours. Reaction buffer: 20 mM Tris HCl pH 9, 100 mM NaCl, 5 mM MgCl2, 0.1 mg/ml bovine gamma globulin, 1 mM adenosine triphosphate, 250 μM guanosine triphosphate, 0.5 mM Tris(2-carboxyethyl)phosphine hydrochloride, 1 μM double stranded DNA and 25 nM purified cGAS protein.
Reactions were stopped and ATP levels in the reaction were measured using a luciferase based assay. Promega Kinase-Glo Max Assay. Luminescence was measured on a plate reader (Molecular Devices). Values were normalized to control wells lacking compound.

cGAS/STING pathway = assay: THP1 cell-based cGAS/STING pathway activity assay (luciferase reporter linked to IRF-3 activation); settings: Homo sapiens, THP-1
Source text: (§1) A cellular assay can be used to assess the compounds of the invention for their ability to inhibit the cGAS/STING pathway. Cells that express a luciferase-based reporter that is linked to IRF-3 activation are used to determine response as a function of compound concentration. Such an assay is described in Vincent et al., Nature Communications 2017, 8(1):750, doi: 10.1038/s41467-017-00833-9.
as §1, with “10.1038/s41467-017-00833-9. Compounds of the invention were assessed using similar assay methods in a THP1 cell assay to generate IC50 values.” for “10.1038/s41467-017-00833-9.”

T1 sequence (Q8N884 157-522): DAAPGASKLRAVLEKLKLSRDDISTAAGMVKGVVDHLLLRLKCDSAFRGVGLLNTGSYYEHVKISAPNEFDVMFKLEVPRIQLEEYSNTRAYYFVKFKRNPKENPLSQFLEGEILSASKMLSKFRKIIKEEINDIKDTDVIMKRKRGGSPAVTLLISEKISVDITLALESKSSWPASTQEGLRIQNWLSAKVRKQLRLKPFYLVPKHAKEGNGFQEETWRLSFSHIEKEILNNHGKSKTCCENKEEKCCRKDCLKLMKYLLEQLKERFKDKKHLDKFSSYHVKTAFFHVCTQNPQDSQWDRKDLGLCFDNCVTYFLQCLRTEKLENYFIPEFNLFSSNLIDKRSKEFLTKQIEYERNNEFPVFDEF

| Compound | IC50 (Human cGAS) [nM] | IC50 (cGAS/STING pathway) [nM] |
| --- | --- | --- |
| CCc1ccc(-c2c(C)[nH]n3c(-c4ccccc4)c(C#N)nc3c2=O)cc1 [Compound 13, 7-(4-ethylphenyl)-6-methyl-8-oxo-3-phenyl-5,8-dihydroimidazo[1,2-b]pyridazine-2-carbonitrile] | < 1000 | < 10000 |
| COc1cccc(-c2c(C)[nH]n3c(-c4ccccc4)c(C#N)nc3c2=O)c1 [Compound 5, 7-(3-methoxyphenyl)-6-methyl-8-oxo-3-phenyl-5,8-dihydroimidazo[1,2-b]pyridazine-2-carbonitrile] | < 1000 | < 10000 |
| Cc1cc(=O)c2nc(C#N)c(-c3ccccc3)n2[nH]1 [Compound 3, 6-methyl-8-oxo-3-phenyl-5,8-dihydroimidazo[1,2-b]pyridazine-2-carbonitrile] | < 1000 | – |
| Cc1[nH]n2c(-c3ccccc3)c(C#N)nc2c(=O)c1-c1cccc(Cl)c1 [Compound 6, 7-(3-chlorophenyl)-6-methyl-8-oxo-3-phenyl-5,8-dihydroimidazo[1,2-b]pyridazine-2-carbonitrile] | < 1000 | < 10000 |
